Each structure is given as a SMILES string.

System in the first assay: not given
Assay: not given
Particulars: rat stroke model; cited from earlier work.
With `O=S(=O)(c1cccc2cnccc12)N1CCCNCC1` [fasudil], the “infarct size and neurologic deficit” value was “reduce both the infarct size and neurologic deficit”.

The target of the next assay is T1, ROCKII (1-543) kinase (Homo sapiens, UniProt O75116).
T1 construct: ROCKII (1-543) (62,408 Da) was diluted in assay buffer to a final concentration of 7.5 nM
T1 sequence (O75116 1-543): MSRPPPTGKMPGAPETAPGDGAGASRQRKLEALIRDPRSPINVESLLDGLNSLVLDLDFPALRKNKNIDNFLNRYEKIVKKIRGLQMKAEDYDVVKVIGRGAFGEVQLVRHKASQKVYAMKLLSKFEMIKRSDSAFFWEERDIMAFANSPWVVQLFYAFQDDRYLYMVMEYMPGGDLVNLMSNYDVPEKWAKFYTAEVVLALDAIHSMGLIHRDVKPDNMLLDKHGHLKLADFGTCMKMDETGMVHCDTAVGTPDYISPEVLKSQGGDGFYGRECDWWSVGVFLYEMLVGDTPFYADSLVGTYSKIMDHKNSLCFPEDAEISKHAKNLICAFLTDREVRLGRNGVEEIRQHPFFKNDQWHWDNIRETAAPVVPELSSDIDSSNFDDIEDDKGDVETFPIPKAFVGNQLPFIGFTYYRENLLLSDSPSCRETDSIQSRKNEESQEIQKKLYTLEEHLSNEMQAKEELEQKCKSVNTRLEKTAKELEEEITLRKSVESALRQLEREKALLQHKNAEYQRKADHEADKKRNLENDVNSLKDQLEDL
In words: Molecular assay: ROCKII (1-543) kinase activity, PKLight ATP detection (luciferin-luciferase, residual ATP). The format is biochemical. Particulars: 750 nM ATP, 500 nM peptide substrate, 7.5 nM kinase, 90 min at 28° C.; read-out: Rock2 IC50. On the procedure:
The activity of ROCKII (1-543) kinase was measured utilizing Cambrex PKLight ATP Detection Reagent, a homogeneous assay technology using luciferin-luciferase to quantify residual ATP. The assay was performed in 384-well low-volume, white, non-binding surface microtiter plates (Corning). The assay buffer was 25 mM HEPES, pH 7.5, 10 mM MgCl2, 50 mM KCl, 0.2% BSA, 0.01% CHAPS, 100 μM Na3VO4 and 0.5 mM DTT. Test compounds, dissolved in neat DMSO at 500 μg/mL, were serially diluted for dose response for a final starting concentration of 3 μg/mL in 1% DMSO of assay buffer. ROCKII (1-543) (62,408 Da) was diluted in assay buffer to a final concentration of 7.5 nM in a total volume of 15 μL. Positive controls were reaction mixtures containing no test compound; negative controls (blanks) were reaction mixtures containing no kinase. After 15 minutes of pre-incubation of the test compounds with the kinase, a mixture of ATP and peptide substrate ([…]) in assay buffer was added to each well for a final concentration of 750 nM ATP and 500 nM peptide, respectively. After 90 minutes of incubation of the kinase reaction at 28° C. temperature, 10 μL of PKLight ATP Detection Reagent (warmed to room temperature previously) was added to each well. The assay plate was incubated at room temperature for additional 15 minutes and then read on an Analyst in luminescence mode. Dose-response experiments for each of the test compounds were conducted in quadruplet. IC50 values of test compounds represent 50% response of the positive control from the dose-response curve.
Representative compounds of the present invention were tested for activity in this assay and all had IC50 values <10 μM. Preferred compounds have an IC50<1 μM and more preferred compounds have an IC50<0.1 μM in this assay. As examples the following data were obtained for the compounds named below: […]
`COc1ccc(C(=O)NCc2cccc(C(=O)Nc3ncc(CCN4CCN(C)CC4)s3)c2)cc1OC` [3,4-Dimethoxy-N-(3-{5-[2-(4-methyl-piperazin-1-yl)-ethyl]-thiazol-2-ylcarbamoyl}-benzyl)-benzamide]: the IC50 was 0.02 µM.

Turning to `COc1ccc(C(=O)NCc2cccc(C(=O)Nc3ccc4c(c3)CCNCC4)c2)cc1OC` [3,4-Dimethoxy-N-[3-(2,3,4,5-tetrahydro-1H-benzo[d]azepin-7-ylcarbamoyl)-benzyl]-benzamide], the IC50 was determined as 0.015 µM.

Turning to `COc1ccc(C(=O)NCc2cccc(C(=O)Nc3cnc4c(c3)CN(C)CC4)c2)cc1OC` [3,4-Dimethoxy-N-[3-(6-methyl-5,6,7,8-tetrahydro-[1,6]naphthyridin-3-ylcarbamoyl)-benzyl]-benzamide], the IC50 came to 0.061 µM.

For the molecule `COc1ccc(C(=O)NCc2cccc(C(=O)Nc3nc4c(s3)C[C@@H](N3CCOCC3)CC4)c2)cc1OC` [3,4-Dimethoxy-N-[3-((S)-6-morpholin-4-yl-4,5,6,7-tetrahydro-benzothiazol-2-ylcarbamoyl)-benzyl]-benzamide], the IC50 was determined as 0.001 µM.

For `COCCN1CCc2ccc(NC(=O)c3cccc(CNC(=O)c4ccc(OC)c(OC)c4)c3)cc2C1` [3,4-Dimethoxy-N-{3-[2-(2-methoxy-ethyl)-1,2,3,4-tetrahydro-isoquinolin-7-ylcarbamoyl]-benzyl}-benzamide], the IC50 was 0.099 µM.

Take `COc1ccc(C(=O)NCc2cccc(C(=O)Nc3ccc(OCCN4CCOCC4)cc3)c2)cc1OC` [3,4-Dimethoxy-N-{3-[4-(2-morpholin-4-yl-ethoxy)-phenylcarbamoyl]-benzyl}-benzamide]: the IC50 worked out at 0.058 µM.

With `COc1ccc(C(=O)NCc2cccc(C(=O)Nc3nc4c(s3)CNCC4)c2)cc1Cl` [3-Chloro-4-methoxy-N-[3-(4,5,6,7-tetrahydro-thiazolo[5,4-c]pyridin-2-ylcarbamoyl)-benzyl]-benzamide], the IC50 was 0.004 µM.

In the case of `CCCN[C@H]1CCc2nc(NC(=O)c3cccc(CNC(=O)c4ccc(OC)c(Cl)c4)c3)sc2C1` [3-Chloro-4-methoxy-N-[3-((S)-6-propylamino-4,5,6,7-tetrahydro-benzothiazol-2-ylcarbamoyl)-benzyl]-benzamide], the IC50 worked out at 0.002 µM.

Consider `CCCN[C@H]1CCc2nc(N(CCOC)C(=O)c3cccc(CNC(=O)c4ccc(OC)c(Cl)c4)c3)sc2C1` [3-Chloro-4-methoxy-N-{3-[(2-methoxy-ethyl)-((S)-6-propylamino-4,5,6,7-tetrahydro-benzothiazol-2-yl)-carbamoyl]-benzyl}-benzamide], for which the IC50 was 0.072 µM.

For `CN1CCc2nc(NC(=O)c3cccc(CNC(=O)Nc4ccc(C#N)cc4)c3)sc2C1` [3-[3-(4-Cyano-phenyl)-ureidomethyl]-N-(5-methyl-4,5,6,7-tetrahydro-thiazolo[5,4-c]pyridin-2-yl)-benzamide], the IC50 was 0.01 µM.

With `COc1ccc(C(=O)NCc2cccc(NC(=O)c3nc4c(s3)CNCC4)c2)cc1OC` [4,5,6,7-Tetrahydro-thiazolo[5,4-c]pyridine-2-carboxylic acid {3-[(3,4-dimethoxy-benzoylamino)-methyl]-phenyl}-amide], the IC50 came out at 0.022 µM.

In the case of `COc1ccc(C(=O)NCc2cccc(C(=O)Nc3ccc(CCN4CCCC4)cc3)c2)cc1C` [4-Methoxy-3-methyl-N-{3-[4-(2-pyrrolidin-1-yl-ethyl)-phenylcarbamoyl]-benzyl}-benzamide], the IC50 is 0.12 µM.

Take `COc1ccc(C(=O)NCc2cccc(C(=O)Nc3ccc4c(c3)CNC4)c2)cc1OC` [N-[3-(2,3-Dihydro-1H-isoindol-5-ylcarbamoyl)-benzyl]-3,4-dimethoxy-benzamide]: the IC50 came out at 0.006 µM.

As for `COc1ccc(C(=O)NCc2cccc(C(=O)Nc3ccc4c(c3)CC(N)C4)c2)cc1OC` (centres unmarked) [N-[3-(2-Amino-indan-5-ylcarbamoyl)-benzyl]-3,4-dimethoxy-benzamide], the IC50 came out at 0.012 µM.

For `CCN1CCc2ccc(NC(=O)c3cccc(CNC(=O)c4ccc(OC)c(OC)c4)c3)cc2C1` [N-[3-(2-Ethyl-1,2,3,4-tetrahydro-isoquinolin-7-ylcarbamoyl)-benzyl]-3,4-dimethoxy-benzamide], the IC50 came out at 0.027 µM.

On to `COc1ccc(C(=O)NCc2cccc(C(=O)Nc3nc4c(s3)C[C@H](N(C)C)CC4)c2)cc1OC` [N-[3-((R)-6-Dimethylamino-4,5,6,7-tetrahydro-benzothiazol-2-ylcarbamoyl)-benzyl]-3,4-dimethoxy-benzamide], for which the IC50 stood at 0.001 µM.

Consider `COc1ccc(C(=O)NCc2cccc(C(=O)Nc3nc4c(s3)C[C@@H](N3CCS(=O)(=O)CC3)CC4)c2)cc1OC` [N-{3-[(S)-6-(1,1-Dioxo-thiomorpholin-4-yl)-4,5,6,7-tetrahydro-benzothiazol-2-ylcarbamoyl]-benzyl}-3,4-dimethoxy-benzamide], for which the IC50 came out at 0.013 µM.

System in another assay: not given
Assay: not given
The conditions noted are these: long term treatment; cited from earlier work.
For `O=S(=O)(c1cccc2cnccc12)N1CCCNCC1` [fasudil], the coronary constrictive remodeling result was “promote a regression of coronary constrictive remodeling” and the coronary stenosis entry is given as “progressively reduce coronary stenosis”.

(Values after patent US8093266B2, “Rho kinase inhibitors” (Boehringer Ingelheim International GmbH, priority 2007, dated 2012).)
